Measured values reported in patent US20070043082A1, “Use of antimuscarinic drugs” (priority 2005, published 2007).
“Also recorded” adds a separate entry of the source.

How the values were obtained:
status epilepticus = test: induction of status epilepticus by systemic pilocarpine; format: in vivo, Wistar rats; conditions: pilocarpine 320 mg/Kg intraperitoneal; average
Description: (§1) Biperiden, together with atropine, is a classic […] and is known to block muscarinic receptors. These drugs are known by their abilities in blocking the cholinergic transmission which is otherwise mediated through muscarinic receptors. For our experiments we used Wistar, adult, male, rats which were maintained under controlled conditions of temperature, light/dark cycles and kept in groups of up to 6 animals in polypropilene boxes with free access to tap water and rat chow pellets. Rats were subject to the intraperitoneal administration of pilocarpine in a dose of 320 mg/Kg for the induction of status epilepticus.
As expected, the systemic administration of pilocarpine lead to a sequence of behavioral alterations such as akinesia, body tremor and/or myoclonic jerks of the head and oro-facial stereotyped movements accompanied by profuse salivation. Status epilepticus, a condition of uninterrupt epileptic seizure, developed on average 19±5 min after the injection of pilocarpine. Three hours after the onset of status epilepticus the animals in the experimental group (n=10) were intraperitoneally injected with the first initial dose of biperiden (8 mg/kg). […]

[1] = test system: spontaneous recurrent epileptic seizures (pilocarpine model of epilepsy); test: pilocarpine model of epilepsy in rats: video monitoring of spontaneous epileptic seizures after status epilepticus; format: in vivo, Wistar rats
Description: The current invention was based on an experimental model of epilepsy in which in rats the induction of a brain lesion is accomplished through the administration of pilocarpine, a cholinergic agonist. According to the original description of this model, approximately 20-30 days after pilocarpine injection in either rats or mice, there is the onset of spontaneous recurrent epileptic seizures (Turski W A, Cavalheiro E A, Schwarz M, Czuczwar S J, Kleinrok Z and Turski L. Limbic seizures produced by pilocarpine in rats: behavioural, electroencephalographic and neuropathological study. Behavioral Brain Research, 9:315-335, 1983; Mello L E A M, Cavalheiro E A, Babb T L, Kupfer W R, Pretorius J K, Tan A M and Finch D M. Circuit mechanisms of seizures in the pilocarpine model of chronic epilepsy: cell loss and mossy fiber sprouting. Epilepsia 34:985-995, 1993). Due to its special features the pilocarpine model is currently one of the 3 most widely used experimental models in the study of epilepsy.
as §1
As expected, the systemic administration of pilocarpine lead to a sequence of behavioral alterations such as akinesia, body tremor and/or myoclonic jerks of the head and oro-facial stereotyped movements accompanied by profuse salivation. Status epilepticus, a condition of uninterrupt epileptic seizure, developed on average 19±5 min after the injection of pilocarpine. Three hours after the onset of status epilepticus the animals in the experimental group (n=10) were intraperitoneally injected with the first initial dose of biperiden (8 mg/kg). This dose represents the concentration needed to provoke memory impairments in rodents, (Roldan G, Bolanos-Badillo E, Gonzales-Sanches H, Quirarte G L and Prado-Alcala R A J W. Selective M1 muscarinic receptor antagonists disrupt memory consolidation of inhibitory avoidance in rats. Neurosci. Lett., 230:93-6, 1997).
For the animals in the control group (n=6), […] after the onset of status epileticus, administration of sterile saline solution (0.9% NaCl), rather than biperiden, was started with a similar protocol.
In the pilocarpine model of epilepsy, a few weeks after the administration of pilocarpine and the induction of status epilepticus, the animals develop spontaneous epileptic seizures which recur for as long as the animal are allowed to live. It is assumed that such epileptic condition adequately mimics some types of epileptic seizures in humans and may closely reflect the sequence of events that take place in post-traumatic epilepsies.
Approximately 15 to 20 days after the induction of status epilepticus, the reported duration of the latent period for the onset of spontaneous seizures, monitoring of the behavioral seizures with a videocamera for approximately 12 hours/week was initiated. Based on our initial hypothesis, that the experimental group (treated with biperiden) would either have a substantial reduction or would show no spontaneous epileptic seizures, and therefore to avoid a false negative result, the sampling rate for video monitoring of these animals was performed for 24 hours/week. Animals were video monitored for approximately 120 days after the induction of status epilepticus. The recorded video tapes were routinely assessed in a 29 inches wide television screen and the seizures observed for each animal were recorded.

[2] = species and source not stated; cited from earlier work

CC[C@@H]1C(=O)OC[C@@H]1Cc1cncn1C [pilocarpine]
time to development of status epilepticus after injection (status epilepticus): 19 ± 5 min

OC(CCN1CCCCC1)(c1ccccc1)C1CC2C=CC1C2 (stereo not drawn) [biperiden]
Length of the latent period for the onset of the first recorded spontaneous epileptic seizure, Latency ([1]; biperiden 8 mg/kg i.p. every 8 hours for 10 days, started 3 h after onset of status epilepticus, n=10, mean ± standard deviation, p < 0.03 vs control (Mann-Whitney)): 6.0±1.1 weeks | Frequency of spontaneous epileptic seizures, Spontaneous seizures/h ([1]; biperiden 8 mg/kg i.p. every 8 hours for 10 days, n=10, monitored about 120 days, mean ± standard deviation, p < 0.02 vs control (Mann-Whitney)): 0.0202 ± 0.0047 seizures/h | frequency of epileptic seizures in animals that developed seizures (in words) ([1]; compared to animals not treated with biperiden): significantly lesser frequency | mean frequency of spontaneous epileptic seizures of the control group relative to the experimental group ([1]; control (saline) vs experimental (treated with biperiden)): 2 times | qualitative or quantitative nature of each individual seizure, difference between the two groups ([1]; experimental (biperiden) vs control): no differences | mean latency of the experimental group relative to the control group ([1]; experimental (biperiden) vs control (saline)): two times greater; also recorded: twice that of the control group | onset of spontaneous recurrent seizures, i.e., epilepsy (in words) ([1]; prophylactic use after pilocarpine lesion): significantly retarded or even suppressed | half-life [2]: 24 ± 1.2 h
